The values below come from patent EP4285905A1, “CABERGOLINE OR A PHARMACEUTICALLY ACCEPTABLE SALT OR SOLVATE THEREOF, FOR USE IN PREVENTION OR DELAY OF POST-PREGNANCY BREAST CANCER IN A FEMALE MAMMAL” (Consejo Superior de Investigaciones Cientificas, priority 2022, dated 2023).

Holding throughout (type): in vivo
In test [1] the test system is Brca1/P53-deficient mice. The test is described as follows: Caspase 3 immunohistochemistry as a marker of apoptosis in the mammary gland. The text has this: (§1) Subsequently, the same groups of animals indicated were generated and samples were collected from the mammary glands at 1, 3, 7, 30 and 60 days post-gestation (in non-lactating multiparous) or post-weaning (in lactating multiparous, with and without treatment with cabergoline) (N = 5 mice per group at each time studied).
The left inguinal breast of each mouse was embedded in paraffin for further study. Once removed from the animals, the breasts were fixed in 4% paraformaldehyde (Scharlau FO) for 24 hours and, subsequently, they were kept in 70% ethanol at a temperature of 4 °C, until they were processed in the Comparative Molecular Pathology Service of the Salamanca Cancer Research Center. Tissues were dehydrated by three 1-hour incubations in increasing concentrations of ethanol (60%, 80%, and 100%). Three other 1-hour incubations were carried out in xylol, to replace the dehydrating agent with a substance miscible in paraffin. Finally, three other incubations of 1 hour and 20 minutes were carried out with liquid paraffin, after which blocks were made with a mould suitable for the size of the tissue in a paraffin embedding station. When the paraffin blocks were completely cold, 2-µm-thick sections were made using a rotation microtome (Leica RM2255). […]
(§2) To quantify cells positive for Ki-67 or caspase 3, the Leica Application Suite (LAS) V3.7 program was used. […]

In test [2] the test system is Brca1/P53-deficient mice. The test is described as follows: Ki-67 immunohistochemistry as a proliferation marker in the mammary epithelium. How it is done: as §1
Ki67 staining was performed at the Comparative Molecular Pathology Service of the Cancer Molecular and Cellular Biology Institute in Salamanca. Sections of the sample were made at 3 µm thickness. Sections were fished onto slides specially treated for this technique (Leica BOND Plus Slides, #S21.2113.A, Leica). The staining process was carried out using the Roche Discovery ULTRA research instrument. The protocol performed by the apparatus is as follows: deparaffinization of the sample, heating the slide to 69 °C; cell conditioning that consisted in the unmasking of the epitope by incubating the sample in a buffer formed by TRIS EDTA pH8 at a temperature of 100 °C for 32 minutes. Next, the primary antibody (Rabbit Anti-Human Ki-67 Monoclonal Antibody (Clone SP6), #MAD-020310Q, Master Diagnostica) was applied manually at a 1:50 dilution and incubated at 37 °C for 60 minutes. After incubation of the primary antibody, two washes with HRP buffer were performed. […]
as §2

The test system of test [3] is Brca1/P53-deficient mice. The test is described as follows: Quantification of adipose and ductal tissue areas in the breast (hematoxylin-eosin, ImageJ). To be noted: for adipose tissue area: vs untreated lactating multiparous mice, P < 0.001.
Excerpt: as §1
The left inguinal breast of each mouse was embedded in paraffin for further study. Once removed from the animals, the breasts were fixed in 4% paraformaldehyde (Scharlau FO) for 24 hours and, subsequently, they were kept in 70% ethanol at a temperature of 4 °C, until they were processed in the Comparative Molecular Pathology Service of the Salamanca Cancer Research Center. Tissues were dehydrated by three 1-hour incubations in increasing concentrations of ethanol (60%, 80%, and 100%). Three other 1-hour incubations were carried out in xylol, to replace the dehydrating agent with a substance miscible in paraffin. Finally, three other incubations of 1 hour and 20 minutes were carried out with liquid paraffin, after which blocks were made with a mould suitable for the size of the tissue in a paraffin embedding station. When the paraffin blocks were completely cold, 2-µm-thick sections were made using a rotation microtome (Leica RM2255).
Hematoxylin and eosin staining was performed in the Comparative Molecular Pathology Service of the Salamanca Cancer Research Center using a battery of manual staining following the processes: deparaffinization in xylol, rehydration with ethanol at different graduations, hematoxylin and eosin staining, dehydration with ethanol and clearance. Once the process was finished, the samples were mounted by adding a drop of non-aqueous DPX fixative and the coverslip was placed.
Adipose tissue area and ductal area were evaluated using ImageJ free software. The ductal area was defined as the surface occupied by the epithelium of the ducts together with the surrounding fibrous tissue stroma, excluding the area of the tubular lumen. To evaluate the ductal and adipocyte area, 10 photos were taken at 10X magnification of the surface of the mammary gland of each of the study animals, five photos in the distal area and five in the proximal area of the breast. The photos were taken randomly in each of these areas of the samples stained with hematoxylin-eosin, with a Leica DM1000 light microscope. […] In the proximal area, more adipose tissue and less ductal tissue were observed than in the distal area, and vice versa. For this reason, only the values of the distal zone were determined to carry out the analyses.
The quantification was expressed as a percentage of the total area. […]

For `C=CCN1C[C@H](C(=O)N(CCCN(C)C)C(=O)NCC)C[C@@H]2c3cccc4[nH]cc(c34)C[C@H]21` [cabergoline, 1-[(6-allylergolin-8ß-yl)-carbonyl]-1-[3-(dimethylamino)propyl]-3-ethylurea], the “apoptosis (percentage of apoptotic cells positive against caspase 3)” value in the test on Brca1/P53-deficient mice [1] (3 days of post-lactational involution, vs untreated multiparous mice, P < 0.0001) is “significant increase in apoptosis”. Also, in the test with Brca1/P53-deficient mice [1] (30 days post-weaning), the “basal apoptosis of the epithelium (caspase 3)” value is “greater basal apoptosis of the epithelium”. The “epithelial proliferation (% of Ki67+ cells)” value with Brca1/P53-deficient mice [2] (30 days post-weaning) was “profound hypoproliferative state”; in the test on Brca1/P53-deficient mice [2] (60 days of post-lactational involution), “hypoproliferative state”. The adipose tissue area entry in the test on Brca1/P53-deficient mice [3] (3 days after weaning) and with Brca1/P53-deficient mice [3] (7 days after weaning) was “statistically significant increase in adipose tissue” throughout. In addition, the ductal area result in the test on Brca1/P53-deficient mice [3] (30 days post-lactational involution) is “drastic decrease in ductal area”. The “ductal area (epithelial component)” value with Brca1/P53-deficient mice [3] (60 days post-lactational involution) was “great reduction of the epithelial component”.
